Test: Solubility of the bifunctional linker in solvents
Type: physicochemical

Question: For `C#CCOC(=O)c1ccc(C=O)c(C=O)c1` [Ib, Prop-2-yn-1-yl 3,4-diformylbenzoate], which solubility (in DMSO or methanol) is on record?
Answer: soluble

Question: What about the solubility (in hexanes or water) of the same compound?
Answer: limited solubility

Reference: patent publication US12269797B2, “Bifunctional linker for bisconjugation, method of synthesis, and method of use” (priority 2020, dated 2025)
